The source of these data is patent US7960416B2, “Stable emulsion composition” (Takeda Pharmaceutical Company Limited, priority 2001, dated 2011).

As usually defined, the IC50 is the concentration that gives 50% inhibition.

The subject of the first assay is NO production. Put plainly: NO production-inhibiting effect in RAW264.7 cells (nitrite ion, DAN fluorescence). The following applies: Mus musculus; RAW264.7 cells stimulated with LPS 5 ng/ml and interferon gamma 1 U/ml; nitrite ion in culture supernatant; Compounds 1 and 3: minimum and maximum of 7 and 9 tests; read-out: IC50 (μM), NO production inhibition. The format is cell-based, Mouse. As for the experimental part: Mouse macrophage cell line RAW264.7 was used as an iNOS-inducible cell and a test compound was examined for its % inhibition of NO production. The test compound was dissolved at 10 mM in N,N-dimethylformamide and diluted with an RPMI-1640 medium at the concentration of 0.1 mM. The concentration was further adjusted using the medium so that a final concentration ranging from 10 μM to 10 nM could be obtained by a 10-fold serial dilution and the test compound was added to a culture medium. On the day before the experiment, the cell was adjusted at 5×10^5/ml in an RPMI-1640 medium supplemented with 10% inactivated fetal calf serum and inoculated to a 96-well microplate at 1×10^5 cells/0.2 ml per well. After incubating at 37° C. under an atmosphere of 5% CO2/95% air overnight, the test compound adjusted as described above was added and then LPS and interferon gamma were added at the final concentrations of 5 ng/ml and 1 U/ml, respectively. After further incubating overnight, culture supernatants were examined for the concentration of nitrite ion (stable metabolite of NO) which was used as an index for the NO production. The nitrite ion concentration was determined by adding 25 μl of 20 μg/ml of 2,3-diaminonaphthalene (DAN) to 50 μl of the culture supernatant, followed by incubating at room temperature for 10 minutes, followed by adding 25 μl of 0.5 N NaOH, followed by determining a fluorescence at 450 nm (excitation wavelength: 365 nm). An IC50 represents the concentration of the test compound which inhibits 50% of the NO production.
As for `CCOC(=O)C1=CCCCC1S(=O)(=O)Nc1ccc([N+](=O)[O-])cc1` (stereo not drawn) [Compound 5, ethyl 6-[N-(4-nitrophenyl)sulfamoyl]-1-cyclohexene-1-carboxylate], the IC50 is 3.7 µM.
Still for that read-out and setting: the result for `CCOC(=O)C1=CCCCC1S(=O)(=O)Nc1ccc(Cl)cc1` (stereo not drawn) [Compound 30, ethyl 6-[N-(4-chlorophenyl)sulfamoyl]-1-cyclohexene-1-carboxylate] reads 0.54 µM; that for `CCOC(=O)C1=CCCCC1S(=O)(=O)Nc1cccc(Cl)c1` (stereo not drawn) [Compound 37, ethyl 6-[N-(3-chlorophenyl)sulfamoyl]-1-cyclohexene-1-carboxylate], 0.13 µM.
Consider `CCOC(=O)C1=CCCCC1S(=O)(=O)Nc1ccccc1CC` (stereo not drawn) [Compound 39, ethyl 6-[N-(2-ethylphenyl)sulfamoyl]-1-cyclohexene-1-carboxylate], for which the IC50 was found to be 0.32 µM.

The assay is the same for the next values; noted with them: RAW264.7 cells stimulated with LPS 5 ng/ml and interferon gamma 1 U/ml; nitrite ion in culture supernatant; Compounds 1 and 3: minimum and maximum of 7 and 9 tests; read-out: IC50 (μM), NO production inhibition.
Take `CCOC(=O)C1=CCCCC1S(=O)(=O)Nc1ccc(F)cc1F` (stereo not drawn) [Compound 20, d-ethyl 6-[N-(2,4-difluorophenyl)sulfamoyl]-1-cyclohexene-1-carboxylate]: the IC50 turned out to be 0.005 µM.
With “ethyl 7-[N-(2-chloro-4-fluorophenyl)sulfamoyl]-1-dycloheptene-1-carboxylate [Compound 65]”, the half-inhibitory concentration (IC50) was 0.32 µM.
